Here are results for three molecules from ChEMBL document CHEMBL1141961, “Identification of coumarin derivatives as a novel class of allosteric MEK1 inhibitors” (Bioorg Med Chem Lett, 2005).

Broadly, the IC50 is the concentration that gives 50% inhibition. A low value points to higher potency.

Experiment [1] is described as follows: Inhibition of LPS-induced TNFalpha production in human monocyte THP1 cells. Format: functional, cell-based. The conditions noted are these: THP-1.
Experiment [2] has as its target T1, Dual specificity mitogen-activated protein kinase kinase 1 (Homo sapiens, UniProt Q02750). The experiment can be described thus: Inhibition of ERK phosphorylation in THP1 cells. In kind it is functional, cell-based. The conditions noted are these: THP-1.
The target of experiment [3] is T1, Dual specificity mitogen-activated protein kinase kinase 1. The experiment can be described thus: Inhibition of activated human MEK1 in MEK-ERK coupling assay.
Experiment [4] can be described thus: Inhibition of human MEK1 activation by COT in COT-MEK-ERK coupling assay.
For experiment [5], the target named is T1, Dual specificity mitogen-activated protein kinase kinase 1. The experiment can be described thus: Inhibition of human MEK1 activation by bRaf in RAF-MEK-ERK coupling assay.
The target is the same in experiment [6]. The experiment is described as follows: Inhibition of activated human MEK1 in MEK-ERK coupling assay at 10 uM.

The structures appear in SMILES notation. Active and inactive are the calls of the source. No cut-off for these calls is given here.

T1 sequence (Q02750 whole entry): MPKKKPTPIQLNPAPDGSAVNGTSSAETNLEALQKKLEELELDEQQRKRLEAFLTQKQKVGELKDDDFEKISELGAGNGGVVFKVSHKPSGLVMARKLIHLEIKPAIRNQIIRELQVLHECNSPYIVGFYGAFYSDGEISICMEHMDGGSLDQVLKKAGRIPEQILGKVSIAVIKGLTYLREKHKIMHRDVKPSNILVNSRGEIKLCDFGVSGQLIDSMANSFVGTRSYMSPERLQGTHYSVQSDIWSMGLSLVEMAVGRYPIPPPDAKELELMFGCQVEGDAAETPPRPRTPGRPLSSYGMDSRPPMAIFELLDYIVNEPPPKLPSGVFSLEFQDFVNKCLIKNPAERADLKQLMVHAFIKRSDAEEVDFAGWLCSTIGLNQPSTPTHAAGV

As for `Cc1c(Cc2ccccc2)c(=O)oc2cc(OC(=O)N(C)C)c(Cl)cc12`, the IC50 worked out at 90 nM in experiment [1], 10 µM in experiment [3] and 70 nM in experiment [4]. In addition, the outcome in experiment [2] was Active.

As for `Cc1c(Cc2ccc(F)cc2)c(=O)oc2cc(OC(=O)N(C)C)ccc12`, the 50% inhibitory concentration (IC50) in experiment [1] worked out at 200 nM; in experiment [5] it was 300 nM; in experiment [4], 300 nM. In experiment [2], the result was Active. The outcome in experiment [6] was inactive.

Regarding `Cc1c(Cc2ccccc2)c(=O)oc2cc(OC(=O)C3CC3)ccc12`, the IC50 in experiment [5] and in experiment [4] was 200 nM each time. Also, in experiment [6], the outcome was inactive.
